Test results as given in patent US12707888B2, “Asymmetric donor-acceptor molecular dyes” (THE UNIVERSITY OF NORTH CAROLINA AT CHARLOTTE, priority 2019, dated 2026).

Key:
J774.A1 cells = assay: Cell labeled spectral measurements; type: cell-based, Mouse
Procedure: FIG. 11C are normalized excitation/emission spectra of 1 μM Bu2N-TTz-Py in PBS buffer with 0.1% TritonX-100 before and after loading into ~0.5×10^5 J774.A1 cells. Excitation spectra (dashed line) were collected at 520 nm and emission spectra (solid line) were collected with 440 nm excitation.
Cell labeled spectral measurements. Excitation and emission spectra were collected by labeling the alveolar macrophage cell line J774.A1 (~0.5×10^5 cells) with 1 μM Bu2N-TTz-Py in phosphate buffered saline (PBS) buffer and 0.1% TritonX-100. Cells were incubated with dye for 10 min at RT, washed thrice with PBS, and dispersed in a cuvette for fluorescent spectral measurements (Fluoromax-4, Horiba Scientific, Edison, NJ, USA). Excitation spectra were collected at 520 nm emission. Emission spectra were collected by exciting at 440 nm. Electrophysiology. Whole cell voltage clamping measurements of 500 nM Bu2N-TTz-Py labeled HEK 293T cells were performed with Axopatch 200A amplifier (Molecular Devices), digitized using an NI-6251 DAQ (National Instruments), and controlled using WinWCP software (Strathclyde Electrophysiology Software). Patch pipettes were pulled using a Sutter P-97 Micropipette puller. Patch pipettes with resistances between 5-10 MOhm were used in voltage clamping experiments. The patch pipette was positioned using an MP325 motorized manipulator (Sutter). Metamorph premier Ver. 7.8.12.0 was linked to an NI-6501 DAQ to enable voltage triggered image acquisition. Extracellular solution composition was 145 mM NaCl, 20 mM glucose, 10 mM HEPES, pH 7.4, 3 mM KCl, 2 mM CaCl2), 1 mM MgCl2 (310 mOsm); and the intracellular solution composition was 115 mM potassium gluconate, 10 mM EGTA tetrapotassium salt, 10 mM HEPES, pH 7.2, 5 mM NaCl, 10 mM KCl, 2 mM ATP disodium salt (290 mOsm).

HEK 293T cells [1] = assay: Annexin V-Cy5 cytotoxicity; type: cell-based, Human; details: 500 nM dye for 15 min
Procedure: FIG. 12C provides Annexin V-Cy5 staining of HEK 293T cells incubated with DMSO (Veh.), VF2.1.Cl, and Bu2N-TTz-Py. Apoptosis for control (incubated cells 65° C., 10 min). Percentages of cytotoxicity were calculated as number of 100×Cy5 positive cells per number of nuclei stained. Error bars represent S.E.M. of three independent experiments, n=250 cells. Scale bars=10 μm.
Lastly, the cellular toxicities of Bu2N-TTz-Py and VF2.1.Cl were characterized using Annexin V-Cy5 staining of phosphatidylserine. HEK 293T cells were labelled with Bu2N-TTz-Py or VF2.1.Cl for 15 min, incubated with Annexin V-Cy5 for 20 min in the dark, washed, and fixed with 4% paraformaldehyde before imaging. As a positive control, apoptosis was induced via high-temperature incubation (65° C., 10 min).
Cellular localization: Time-lapse imaging was performed to probe the membrane localization of Bu2N-TTz-Py at longer time scale. […] Intensity values at plasma membrane (IPM) were calculated by drawing regions of interest (ROI) around the whole cell and subtracting intracellular intensity (IIM, ROI drawn within the cell) for Bu2N-TTz-Py and CellMask images, respectively. […] Cytotoxicity percentage is calculated as number of Annexin V-Cy5 positive cells to total number of nuclear stained cells. Number of cells quantification were performed using Analyze particle function of ImageJ program.

[2] = Solubility in aqueous environments; type: physicochemical
HEK 293T cells [3] = assay: Photostability under continuous illumination in cells; type: cell-based, Human
Procedure: FIG. 12B details photostability of Bu2N-TTz-Py and VF2.1.Cl in HEK 293T cells (illuminated using λ=440 nm at […]) and their representative pseudo-gray scale images under continuous illumination at wavelength of maximum excitation. Error bars a/b represent the standard error of mean (S.E.M.) for 3 independent experiments, n=12 total cells. Scale bar=10 μm.
Microscopy. Imaging was carried out on an IX83 inverted microscope (Olympus Corporation of the Americas, Center Valley, PA, USA) using 100×, 1.4 NA, DIC oil immersion objective (PLAPON, Olympus) and an Evolve Delta 512 EMCCD camera (Photometrics, USA). Filter wheel, shutter, and CCD camera were controlled using Metamorph premier Ver 7.8.12.0 (Molecular Devices, LLC, USA). For photostability studies, HEK 293T cells were labeled with 500 nM Bu2N-TTz-Py and illuminated continuously with ~5 W cm^−2 power light source, periodically acquiring images at 1 min interval. Bu2N-TTz-Py channel images were obtained using 480/20 bandpass excitation filter, 575/40 bandpass emission filter and 89016 dichroic. VF2.1.Cl channel images were obtained using 500/20 bandpass excitation filter, 535/40 bandpass emission filter and 69002 dichroic. For CellMask™ red, images were obtained using the 640/30 bandpass excitation filter, 705/72 bandpass emission filter and 89016 dichroic.

## CCCCN(CCCC)c1ccc(-c2nc3sc(-c4ccncc4)nc3s2)cc1 [Bu2N-TTz-Py, 2-(N,N-dibutyl-4-aminophenyl)-5-(4-pyridyl) thiazolo[5,4-d]thiazole]
J774.A1 cells; localized to cell membranes, 440 nm excitation
  peak emission wavelength: 483 nm
J774.A1 cells; localized to cell membranes, collected at 520 nm emission
  peak excitation wavelength: 423 nm
J774.A1 cells; solution of PBS with 0.1% Triton-X100, before loading into cells
  wavelength of peak emission: 518 nm
HEK 293T cells [1]
  cytotoxicity (Annexin V-Cy5 staining): insignificant cytotoxicity
[2]
  solubility in aqueous environments: poor solubility
HEK 293T cells [3]; @ 440 nm LED
  molar absorptivity ε: 15,000-20,000 cm^−1 M^−1
HEK 293T cells [3]; in the same amount of time (approx. 7.5 minutes), I=5 W cm^−2, 440 nm LED
  decay of fluorescence intensity: less than 10%
